Reference: ChEMBL document CHEMBL3232841, “New aminobenzenesulfonamide-thiourea conjugates: synthesis and carbonic anhydrase inhibition and docking studies” (Eur J Med Chem, 2014)

Molecular target: Carbonic anhydrase 2 (Bos taurus, UniProt P00921)
Assay: Inhibition of bovine erythrocyte carbonic anhydrase 2 using p-nitrophenyl acetate as substrate preincubated for 10 mins before substrate addition measured after 30 mins by spectrophotometric analysis

Chain of Carbonic anhydrase 2 (P00921 whole entry): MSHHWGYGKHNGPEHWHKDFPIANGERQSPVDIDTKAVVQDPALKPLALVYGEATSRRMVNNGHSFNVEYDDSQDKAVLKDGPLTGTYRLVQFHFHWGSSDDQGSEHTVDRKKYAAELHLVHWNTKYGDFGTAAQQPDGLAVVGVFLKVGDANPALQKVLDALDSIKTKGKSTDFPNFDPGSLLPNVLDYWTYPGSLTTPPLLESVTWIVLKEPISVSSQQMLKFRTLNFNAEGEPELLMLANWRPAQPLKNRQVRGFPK

Going from `NS(=O)(=O)c1cccc(NC(=S)NC(=O)c2cccs2)c1` to `NS(=O)(=O)c1ccc(NC(=S)NC(=O)c2cccs2)cc1`, the IC50 falls from 0.052 µM to 0.011 µM (4.7-fold).

Going from `NS(=O)(=O)c1cccc(NC(=S)NC(=O)c2cccc(Cl)c2)c1` to `NS(=O)(=O)c1cccc(NC(=S)NC(=O)c2ccc(Cl)cc2)c1`, the IC50 rises from 0.22 µM to 5.64 µM (26-fold). The first is the more potent here.

`NS(=O)(=O)c1cccc(NC(=S)NC(=O)c2ccco2)c1` and `NS(=O)(=O)c1cccc(NC(=S)NC(=O)c2ccccc2Cl)c1` are within 1.5-fold of each other in IC50: 9.76 µM for the first, 13.5 µM for the second.

First: CC(C)(C)C(=O)NC(=S)Nc1cccc(S(N)(=O)=O)c1
Second: NS(=O)(=O)c1cccc(NC(=S)NC(=O)c2ccc(Cl)cc2Cl)c1
The IC50 of the first is 13-fold lower: 1.28 µM for the first, 17.1 µM for the second.

`NS(=O)(=O)c1ccc(NC(=S)NC(=O)c2cc3ccccc3oc2=O)cc1` and `NS(=O)(=O)c1cccc(NC(=S)NC(=O)c2cc3ccccc3oc2=O)c1` are within 1.5-fold of each other in IC50: 11.3 µM for the first, 13.4 µM for the second.

First: NS(=O)(=O)c1cccc(NC(=S)NC(=O)c2cc([N+](=O)[O-])cc([N+](=O)[O-])c2)c1
Second: NS(=O)(=O)c1cccc(NC(=S)NC(=O)c2cccc([N+](=O)[O-])c2)c1
The IC50 of the first is 29-fold higher: 14.2 µM for the first, 0.49 µM for the second.

`NS(=O)(=O)c1cccc(NC(=S)NC(=O)C23CC4CC(CC(C4)C2)C3)c1` showed an IC50 of 5.58 µM.
